Assay [1] deals with T1, human recombinant HDAC6 (Homo sapiens, UniProt Q9UBN7).
T1 construct: purchased Calbiochem 382180
T1 sequence (Q9UBN7 1-1215): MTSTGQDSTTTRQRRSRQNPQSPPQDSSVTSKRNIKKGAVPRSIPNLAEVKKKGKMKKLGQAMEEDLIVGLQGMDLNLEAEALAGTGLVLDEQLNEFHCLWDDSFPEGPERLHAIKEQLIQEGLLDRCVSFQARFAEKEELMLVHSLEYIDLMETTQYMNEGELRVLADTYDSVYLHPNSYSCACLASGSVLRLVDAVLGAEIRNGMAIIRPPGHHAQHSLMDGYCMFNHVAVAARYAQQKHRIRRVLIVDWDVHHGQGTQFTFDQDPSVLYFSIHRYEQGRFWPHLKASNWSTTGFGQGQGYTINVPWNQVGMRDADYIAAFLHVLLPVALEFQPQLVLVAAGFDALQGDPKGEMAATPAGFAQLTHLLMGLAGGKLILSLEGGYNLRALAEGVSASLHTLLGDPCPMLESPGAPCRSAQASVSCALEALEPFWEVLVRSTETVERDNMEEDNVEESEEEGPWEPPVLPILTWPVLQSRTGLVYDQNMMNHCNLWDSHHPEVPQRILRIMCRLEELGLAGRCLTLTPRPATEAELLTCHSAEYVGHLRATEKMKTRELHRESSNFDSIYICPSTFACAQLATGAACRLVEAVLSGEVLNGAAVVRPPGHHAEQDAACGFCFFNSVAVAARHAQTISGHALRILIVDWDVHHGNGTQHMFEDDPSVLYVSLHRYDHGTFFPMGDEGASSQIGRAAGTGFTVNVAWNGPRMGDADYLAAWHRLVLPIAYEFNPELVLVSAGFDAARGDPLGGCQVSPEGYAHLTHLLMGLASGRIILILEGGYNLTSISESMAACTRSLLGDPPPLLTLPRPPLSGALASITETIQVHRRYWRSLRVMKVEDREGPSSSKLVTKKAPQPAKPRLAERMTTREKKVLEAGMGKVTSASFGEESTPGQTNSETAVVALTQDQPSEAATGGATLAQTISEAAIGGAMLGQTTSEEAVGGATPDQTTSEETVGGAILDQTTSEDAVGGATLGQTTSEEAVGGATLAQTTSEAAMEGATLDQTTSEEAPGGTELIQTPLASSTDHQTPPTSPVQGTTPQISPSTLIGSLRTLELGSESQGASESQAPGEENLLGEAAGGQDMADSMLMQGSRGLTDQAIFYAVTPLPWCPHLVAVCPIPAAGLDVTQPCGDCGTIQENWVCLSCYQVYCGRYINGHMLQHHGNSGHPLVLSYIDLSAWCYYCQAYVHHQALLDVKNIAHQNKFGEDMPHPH
Put plainly: HDAC6 enzyme activity inhibition assay (in vitro, fluorimetric). It counts as biochemical. As to conditions: for HDAC6 selectivity (fold): HDAC6 selectivity over HDAC1; for pIC50: human recombinant HDAC6, fluorimetric kit, same protocol as HDAC1. In a few lines: (§1)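 IC50 values derive from fluorescence (Ex 360, Em 460) after developer treatment (30 min) of reactions of recombinant human HDAC1 or HDAC6 with 10 μM Fluor de Lys-SIRT1 substrate (60 min, 30 °C). Compounds were serially diluted 5-fold; 0.3 μg enzyme was used for HDAC1, with HDAC6 tested identically.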

Assay [2] has as its target T2, human recombinant HDAC1 (Homo sapiens, UniProt Q13547).
T2 construct: purchased Enzo Life Science BML-SE456
Put plainly: HDAC1 enzyme activity inhibition assay (in vitro, fluorimetric). It counts as biochemical. As to conditions: human recombinant HDAC1, fluorimetric kit, 30° C. 60 minutes. In short, it runs like this: as §1

pIC50: −log10 of the molar value. Bounds are passed on as bounds.

T2 sequence (Q13547 whole entry): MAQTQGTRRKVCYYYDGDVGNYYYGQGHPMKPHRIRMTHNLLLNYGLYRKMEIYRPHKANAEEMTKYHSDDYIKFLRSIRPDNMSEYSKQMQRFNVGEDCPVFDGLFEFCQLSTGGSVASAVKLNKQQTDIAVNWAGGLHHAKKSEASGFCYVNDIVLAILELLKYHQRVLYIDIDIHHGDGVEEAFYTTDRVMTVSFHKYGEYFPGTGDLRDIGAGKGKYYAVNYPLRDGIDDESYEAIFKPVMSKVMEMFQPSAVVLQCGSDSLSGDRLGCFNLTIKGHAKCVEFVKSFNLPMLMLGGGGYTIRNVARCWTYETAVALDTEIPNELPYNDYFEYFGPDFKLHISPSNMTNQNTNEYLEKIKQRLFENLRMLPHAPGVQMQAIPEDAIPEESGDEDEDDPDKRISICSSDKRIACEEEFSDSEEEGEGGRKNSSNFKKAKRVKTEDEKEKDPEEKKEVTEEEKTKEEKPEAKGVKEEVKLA

The pIC50 is −log10 of the IC50, conventionally taken in molar units. As for `C[C@@H]1CN(Cc2ccc(C(=O)NO)cc2)C[C@H](C)N1C(=O)c1cccc(CN2CCN(S(C)(=O)=O)CC2)c1` [Compound 444, 4-(((3R,5S)-3,5-dimethyl-4-(3-((4-(methylsulfonyl)piperazin-1-yl)methyl)benzoyl)piperazin-1-yl)methyl)-N-hydroxybenzamide], in assay [1], the “HDAC6 selectivity (fold)” value stood at 146 fold and the pIC50 was 7.24. Besides, in assay [2], the negative logarithm of the IC50 (pIC50) was 5.07.
Take `C[C@@H]1CN(Cc2ccc(C(=O)NO)cc2)C[C@H](C)N1Cc1cccc(CN2CCCCC2)c1` [Compound 382, 4-(((3R,5S)-3,5-dimethyl-4-(3-(piperidin-1-ylmethyl)benzyl)piperazin-1-yl)methyl)-N-hydroxybenzamide]: the negative-log IC50 (pIC50) is 7.08 in assay [1] and below 5.00 in assay [2].
Take `C[C@@H]1CN(Cc2ccc(C(=O)NO)c(O)c2)C[C@H](C)N1Cc1cccc(CN2CCOCC2)c1` [Compound 653, 4-(((3R,5S)-3,5-dimethyl-4-(3-(morpholinomethyl)benzyl)piperazin-1-yl)methyl)-N,2-dihydroxybenzamide]: in assay [1], the “HDAC6 selectivity (fold)” value was above 23 fold and the negative logarithm of the IC50 (pIC50) is 6.38. The pIC50 in assay [2] is below 5.00.
For `C[C@@H]1CN(Cc2ccccc2)C[C@H](C)N1Cc1ccc(C(=O)NO)c(F)c1` [Compound 174, 4-(((2S,6R)-4-benzyl-2,6-dimethylpiperazin-1-yl)methyl)-2-fluoro-N-hydroxybenzamide], in assay [1], the “HDAC6 selectivity (fold)” value is reported as above 103 fold and the pIC50 is 7.01. Also, in assay [2], the negative logarithm of the IC50 (pIC50) was below 5.00.
For the compound `C[C@@H]1CN(C(=O)Nc2ccc3c(ccn3C)c2)C[C@H](C)N1Cc1ccc(C(=O)NO)cc1` [Compound 185, (3R,5S)-4-(4-(hydroxycarbamoyl)benzyl)-3,5-dimethyl-N-(1-methyl-1 H -indol-5-yl)piperazine-1-carboxamide], in assay [1], the “HDAC6 selectivity (fold)” value is reported as 3 fold and the negative-log IC50 (pIC50) is 6.60. Also, the pIC50 in assay [2] is 6.10.
Regarding `C[C@@H]1CN(C(=O)c2cccc(CN3CCCC3)c2)C[C@H](C)N1Cc1ccc(/C=C/C(=O)NO)cc1` [Compound 480, (E)-3-(4-(((2S,6R)-2,6-dimethyl-4-(3-(pyrrolidin-1-ylmethyl)benzoyl)piperazin-1-yl)methyl)phenyl)-N-hydroxyacrylamide], the “HDAC6 selectivity (fold)” value in assay [1] is recorded as 2 fold. Moreover, the pIC50 was 6.33 in assay [1] and 6.00 in assay [2].
For the compound `C[C@@H]1CN(Cc2ccc(C(=O)NO)cc2)C[C@H](C)N1C(=O)NCc1cccc(F)c1` [Compound 232, (2S,6R)-N-(3-fluorobenzyl)-4-(4-(hydroxycarbamoyl)benzyl)-2,6-dimethylpiperazine-1-carboxamide], in assay [1], the “HDAC6 selectivity (fold)” value was determined as 28 fold and the pIC50 was 6.54. Further, the pIC50 in assay [2] is 5.10.
For the compound `C[C@@H]1CN(Cc2ccc(C(=O)NO)cc2)C[C@H](C)N1Cc1cccc(-n2cccc2)c1` [Compound 255, 4-(((3R,5S)-4-(3-(1H-pyrrol-1-yl)benzyl)-3,5-dimethylpiperazin-1-yl)methyl)-N-hydroxybenzamide], in assay [1], the “HDAC6 selectivity (fold)” value is on record as 354 fold and the negative logarithm of the IC50 (pIC50) was 7.62. Further, in assay [2], the pIC50 was 5.07.
The like results for `C[C@@H]1CN(Cc2cc(F)c(F)cc2F)C[C@H](C)N1Cc1ccc(C(=O)NO)cc1` [Compound 215, 4-(((2S,6R)-2,6-dimethyl-4-(2,4,5-trifluorobenzyl)piperazin-1-yl)methyl)-N-hydroxybenzamide] were, in that order, 2 fold, 6.28 and below 5.00.
On to `C[C@@H]1CN(Cc2ccc(C(=O)NO)nc2)C[C@H](C)N1Cc1ccccc1` [Compound 812, 5-(((3R,5S)-4-benzyl-3,5-dimethylpiperazin-1-yl)methyl)-N-hydroxypicolinamide], for which, in assay [1], the “HDAC6 selectivity (fold)” value is above 6 fold and the pIC50 was 5.81. For the same compound, in assay [2], the negative-log IC50 (pIC50) was below 5.00.
As for `CC(c1ccc(C(=O)NO)cc1)N1C[C@@H](C)N(Cc2ccccc2)[C@@H](C)C1` (stereo partly drawn) [Compound 219, 4-(1-((3R,5S)-4-benzyl-3,5-dimethylpiperazin-1-yl)ethyl)-N-hydroxybenzamide], in assay [1], the “HDAC6 selectivity (fold)” value is recorded as above 59 fold and the pIC50 is 6.77. The pIC50 in assay [2] was below 5.00.
`C[C@@H]1CN(C(=O)c2ccccn2)C[C@H](C)N1Cc1ccc(C(=O)NO)cc1` [Compound 111, 4-(((2S,6R)-2,6-dimethyl-4-picolinoylpiperazin-1-yl)methyl)-N-hydroxybenzamide]: in assay [1], the “HDAC6 selectivity (fold)” value was above 22 fold and the pIC50 was 6.34. In assay [2], the negative logarithm of the IC50 (pIC50) was below 5.00.
For `C[C@@H]1CN(C(=O)c2ccc(Cl)cc2)C[C@H](C)N1Cc1ccc(C(=O)NO)cc1` [Compound 106, 4-(((2S,6R)-4-(4-chlorobenzoyl)-2,6-dimethylpiperazin-1-yl)methyl)-N-hydroxybenzamide], in assay [1], the “HDAC6 selectivity (fold)” value came to 61 fold and the pIC50 is 6.92. Moreover, the pIC50 in assay [2] was 5.14.
`C[C@@H]1CN(Cc2ccc(C(=O)NO)cc2)C[C@H](C)N1Cc1ccccc1-c1ccco1` [Compound 327, 4-(((3R,5S)-4-(2-(furan-2-yl)benzyl)-3,5-dimethylpiperazin-1-yl)methyl)-N-hydroxybenzamide]: in assay [1], the “HDAC6 selectivity (fold)” value is on record as above 43 fold and the negative logarithm of the IC50 (pIC50) is 6.63. For the same compound, the negative-log IC50 (pIC50) in assay [2] was below 5.00.
In the case of `C[C@@H]1CN(Cc2ccc3[nH]c(C(=O)NO)cc3c2)C[C@H](C)N1Cc1ccccc1` [Compound 569, 5-(((3R,5S)-4-benzyl-3,5-dimethylpiperazin-1-yl)methyl)-N-hydroxy-1H-indole-2-carboxamide], in assay [1], the “HDAC6 selectivity (fold)” value was 82 fold and the negative logarithm of the IC50 (pIC50) is 6.08. In addition, the negative logarithm of the IC50 (pIC50) in assay [2] is below 5.00.
The like results for `C[C@@H]1CN(Cc2ccc(C(=O)NO)cc2)C[C@H](C)N1Cc1ccccc1F` [Compound 211, 4-(((3R,5S)-4-(2-fluorobenzyl)-3,5-dimethylpiperazin-1-yl)methyl)-N-hydroxybenzamide] were, in that order, above 154 fold, 7.19 and below 5.00.
The like results for `C[C@@H]1CN(Cc2ccc(C(=O)NO)cc2)C[C@H](C)N1Cc1ccccc1C1=CCN(CC(F)(F)F)CC1` [Compound 483, 4-(((3R,5S)-3,5-dimethyl-4-(2-(1-(2,2,2,2-trifluoroethyl)-1,2,3,6-tetrahydropyridin-4-yl)benzyl)piperazin-1-yl)methyl)-N-hydroxybenzamide] were, in that order, 166 fold, 6.99 and 4.77.
For `C[C@@H]1CN(Cc2ccccc2-c2ccoc2)C[C@H](C)N1Cc1ccc(C(=O)NO)cc1` [Compound 348, 4-(((2S,6R)-4-(2-(furan-3-yl)benzyl)-2,6-dimethylpiperazin-1-yl)methyl)-N-hydroxybenzamide], in assay [1], the “HDAC6 selectivity (fold)” value is given as 6 fold and the pIC50 is 6.07. The pIC50 in assay [2] was 5.33.
On to `C[C@@H]1CN(Cc2ccc(C(=O)NO)cc2)C[C@H](C)N1Cc1cccc(CN2CCN(CC(C)(C)O)CC2)c1` [Compound 386, N-hydroxy-4-(((3R,5S)-4-(3-((4-(2-hydroxy-2-methylpropyl)piperazin-1-yl)methyl)benzyl)-3,5-dimethylpiperazin-1-yl)methyl)benzamide], for which, in assay [1], the “HDAC6 selectivity (fold)” value is given as above 77 fold. Also, the figures for the pIC50 in assay [1] and in assay [2] were 6.89 and below 5.00, respectively.
As to `C[C@@H]1CN(Cc2ccc3ccccc3c2)C[C@H](C)N1Cc1ccc(C(=O)NO)cc1` [Compound 268, 4-(((2S,6R)-2,6-dimethyl-4-(naphthalen-2-ylmethyl)piperazin-1-yl)methyl)-N-hydroxybenzamide], in assay [1], the “HDAC6 selectivity (fold)” value is given as 2 fold and the negative-log IC50 (pIC50) is 5.90. For the same compound, the negative logarithm of the IC50 (pIC50) in assay [2] is 5.55.

The record behind these values is US10287255B2, “Compounds as histone deacetylase 6 inhibitors and pharmaceutical compositions comprising the same” (CHONG KUN DANG PHARMACEUTICAL CORP., priority 2014, dated 2019).
